Assay results as given in patent US9296723B2, “NAMPT inhibitors” (AbbVie Inc., priority 2012, dated 2016).

Columns and labels:
[1] = biological target: T1, NAMPT (Homo sapiens, UniProt P43490); experiment: Time-Resolved Fluorescence Resonance Energy Transfer (TR-FRET) Binding Assay of NAMPT; details: 6.8 nM NAMPT, 200 nM probe, equilibrated 3 hours, no substrates
In short: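 IC50s come from four-parameter logistic fits of control-normalized Em520/Em495 TR-FRET ratios (Ex 337 nm) against compound concentration. Before reading, enzyme, probe, antibody and compound equilibrated for 3 h at room temperature.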

[2] = biological target: T1, NAMPT; experiment: TR-FRET Binding Assay of NAMPT with PRPP; details: 2 nM NAMPT, 2 nM probe, 200 µM PRPP and 2.5 mM ATP, equilibrated 16 hours
Protocol: Time-Resolved Fluorescence Resonance Energy Transfer (TR-FRET) Binding Assay of NAMPT with PRPP
Compound handling and data processing were identical to the assay in the absence of substrates (above). Final concentrations were 1× assay buffer, 2% DMSO, 2 nM NAMPT, 2 nM probe, 1 nM Tb-anti-His antibody (Invitrogen #PV5895), 200 µM PRPP and 2.5 mM ATP. Reactions were equilibrated for 16 hours prior to measurement to allow for potential enzymatic modification of test compounds.

[3] = system: PC3 cells; experiment: NAMPT Cell Proliferation Assay (Cell Titer Glo); format: cell-based; details: Homo sapiens, PC-3, 120 h, incubated 5 days, cell viability
In short: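 Viability measured by Cell Titer Glo luminescence after 5-day exposure of attached PC3 cells to compound, dosed as 10-fold serial dilutions ([…]) in RPMI/10% FBS at 37 °C and 5% CO2. Percent inhibition fitted to sigmoidal dose-response curves for IC50.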

T1 sequence (P43490 whole entry): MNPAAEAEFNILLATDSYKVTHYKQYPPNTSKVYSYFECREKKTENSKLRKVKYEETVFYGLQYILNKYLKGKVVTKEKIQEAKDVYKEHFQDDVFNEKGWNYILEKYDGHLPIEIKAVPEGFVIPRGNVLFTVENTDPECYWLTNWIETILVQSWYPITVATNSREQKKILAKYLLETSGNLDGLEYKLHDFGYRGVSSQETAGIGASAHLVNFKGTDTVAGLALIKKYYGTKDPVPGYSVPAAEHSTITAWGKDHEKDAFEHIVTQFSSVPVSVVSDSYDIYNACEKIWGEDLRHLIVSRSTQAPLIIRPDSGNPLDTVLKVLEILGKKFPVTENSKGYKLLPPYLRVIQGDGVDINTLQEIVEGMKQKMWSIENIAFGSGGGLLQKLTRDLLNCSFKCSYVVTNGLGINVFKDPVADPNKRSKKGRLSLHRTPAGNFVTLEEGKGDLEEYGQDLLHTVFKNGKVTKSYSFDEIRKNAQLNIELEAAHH

Row | SMILES | IC50 [1] [µM] | IC50 [2] [µM] | IC50 [3] [µM]
1 | CC(C)(C)CC(=O)N1CC=C(c2ccc(NC(=O)N3CC(c4cccnc4)C3)cc2)CC1 [Example 17, N-{4-[1-(3,3-dimethylbutanoyl)-1,2,3,6-tetrahydropyridin-4-yl]phenyl}-3-(pyridin-3-yl)azetidine-1-carboxamide] | 0.0169 | 0.000568 | 0.0368
2 | O=C(CC(F)(F)F)N1CC=C(c2ccc(NC(=O)N3CC(c4cccnc4)C3)cc2)CC1 [Example 18, 3-(pyridin-3-yl)-N-{4-[1-(3,3,3-trifluoropropanoyl)-1,2,3,6-tetrahydropyridin-4-yl]phenyl}azetidine-1-carboxamide] | 0.0367 | 0.000294 | 0.0658
3 | O=C(CCC(F)(F)F)N1CC=C(c2ccc(NC(=O)N3CC(c4cccnc4)C3)cc2)CC1 [Example 19, 3-(pyridin-3-yl)-N-{4-[1-(4,4,4-trifluorobutanoyl)-1,2,3,6-tetrahydropyridin-4-yl]phenyl}azetidine-1-carboxamide] | 0.153 | 0.00086 | 0.192
4 | COCC(=O)N1CC=C(c2ccc(NC(=O)N3CC(c4cccnc4)C3)cc2)CC1 [Example 20, N-{4-[1-(methoxyacetyl)-1,2,3,6-tetrahydropyridin-4-yl]phenyl}-3-(pyridin-3-yl)azetidine-1-carboxamide] | 0.0684 | 0.0005 | 0.123
5 | CSCC(=O)N1CC=C(c2ccc(NC(=O)N3CC(c4cccnc4)C3)cc2)CC1 [Example 21, N-(4-{1-[(methylsulfanyl)acetyl]-1,2,3,6-tetrahydropyridin-4-yl}phenyl)-3-(pyridin-3-yl)azetidine-1-carboxamide] | 0.0325 | 0.000381 | 0.0337
6 | CCOCC(=O)N1CC=C(c2ccc(NC(=O)N3CC(c4cccnc4)C3)cc2)CC1 [Example 22, N-{4-[1-(ethoxyacetyl)-1,2,3,6-tetrahydropyridin-4-yl]phenyl}-3-(pyridin-3-yl)azetidine-1-carboxamide] | 0.143 | 0.00063 | 0.276

Other lines, results leading:

Row | IC50 [1] [µM] | IC50 [2] [µM] | IC50 [3] [µM] | SMILES
7 | 0.0978 | 0.000551 | 0.195 | COCCOCC(=O)N1CC=C(c2ccc(NC(=O)N3CC(c4cccnc4)C3)cc2)CC1 [Example 23, N-(4-{1-[(2-methoxyethoxy)acetyl]-1,2,3,6-tetrahydropyridin-4-yl}phenyl)-3-(pyridin-3-yl)azetidine-1-carboxamide]
8 | 0.17 | 0.000988 | 0.113 | CSCCC(=O)N1CC=C(c2ccc(NC(=O)N3CC(c4cccnc4)C3)cc2)CC1 [Example 24, N-(4-{1-[3-(methylsulfanyl)propanoyl]-1,2,3,6-tetrahydropyridin-4-yl}phenyl)-3-(pyridin-3-yl)azetidine-1-carboxamide]
9 | 0.0374 | 0.000362 | 0.0271 | O=C(Nc1ccc(C2=CCN(C(=O)C3CC3)CC2)cc1)N1CC(c2cccnc2)C1 [Example 25, N-{4-[1-(cyclopropylcarbonyl)-1,2,3,6-tetrahydropyridin-4-yl]phenyl}-3-(pyridin-3-yl)azetidine-1-carboxamide]
10 | 0.0736 | 0.000724 | 0.172 | O=C(CC1CC1)N1CC=C(c2ccc(NC(=O)N3CC(c4cccnc4)C3)cc2)CC1 [Example 26, N-{4-[1-(cyclopropylacetyl)-1,2,3,6-tetrahydropyridin-4-yl]phenyl}-3-(pyridin-3-yl)azetidine-1-carboxamide]
11 | 0.013 | 0.000243 | 0.0092 | CC(C)C(=O)N1CC=C(c2ccc(NC(=O)N3CC(c4cccnc4)C3)cc2)CC1 [Example 27, N-{4-[1-(2-methylpropanoyl)-1,2,3,6-tetrahydropyridin-4-yl]phenyl}-3-(pyridin-3-yl)azetidine-1-carboxamide]
12 | 0.0772 | 0.000218 | 0.0642 | O=C(Nc1ccc(OC2CN(C(=O)[C@H]3CCCO3)C2)cc1)N1CC(c2cccnc2)C1 [Example 28, 3-(pyridin-3-yl)-N-[4-({1-[(2R)-tetrahydrofuran-2-ylcarbonyl]azetidin-3-yl}oxy)phenyl]azetidine-1-carboxamide]
